What is called microsomal CLint is the capacity of the preparation to metabolise the compound, expressed as a volume cleared per time. A high value points to rapid turnover. The fraction unbound is the share of the substance not bound to proteins or other matrix. Low values mean extensive binding, high ones weak binding. As a reminder, the inhibition is the percentage by which the read-out fell short of the control. The IC50 is the concentration that inhibits the measured activity by half. A low value points to inhibition by little substance.

The values that follow come from article PMC11472313, “Development of Fragment-Based Inhibitors of the Bacterial Deacetylase LpxC with Low Nanomolar Activity” (Journal of Medicinal Chemistry, 2024).

The nature of data set [1]: microsomal metabolic stability, mouse. The settings on record: for microsomal CLint: mouse liver microsomes; for half-life: mouse, liver microsomes, read-out: microsomal metabolic stability t1/2. It counts as in vitro ADME. As for the experimental part:
Also, the plasma stability of the compounds in mouse plasma was generally low with half-lives between 22.9 min [(S)-13h] and 43.1 min [(S)-13j].
(§1) The microsomal metabolic stability assay as well as the plasma protein binding assay were conducted as described previously.[78]
Samples were analyzed using an Agilent 1290 Infinity II HPLC system coupled to an AB Sciex QTrap 6500plus mass spectrometer. LC conditions were as follows: column: Agilent Zorbax Eclipse Plus C18, 50 × 2.1 mm, 1.8 μm; temperature: 30 °C; injection volume: 5 μL per sample; flow rate: 700 μL min^–1. Samples were run under acidic conditions. Solvents: (A) water + 0.1% formic acid; (B) 95% acetonitrile/5% H2O + 0.1% formic acid. Gradient elution: (A %): 0–0.1 min: 99%, 0.1–3.5 min: gradient from 99 to 50%, 3.5–3.8 min: gradient from 50 to 0%, 3.8–4.7 min: gradient from 0 to 99%. Mass transitions for controls and compounds are depicted in Table S3.
For orientation: Liver microsomes are a subcellular fraction often used to study metabolism.

Data set [2] is described as follows: metabolic stability in mouse liver S9 fractions. The format is in vitro ADME. The settings on record: pooled liver S9 fraction, 1 μM compound, 1 mg/mL S9, phase I and II cofactors; for half-life at 1 μM: read-out: metabolic stability in mouse liver S9 fractions t1/2. As for the experimental part: For the evaluation of combined phase I and phase II metabolic stability, the compound (1 μM) was incubated with 1 mg/mL pooled mouse liver S9 fraction (Xenotech, Kansas City, USA), 2 mM nicotinamide adenine dinucleotide phosphate hydrogen (NADPH), 1 mM UDPGA, 10 mM MgCl2, 5 mM glutathione (GSH), and 0.1 mM 3′-phosphoadenosine 5′-phosphosulfate (PAPS) at 37 °C for 120 min. The metabolic stability of testosterone, verapamil, and ketoconazole were determined in parallel to confirm the enzymatic activity of mouse S9 fractions. The incubation was stopped after defined time points by precipitation of aliquots of S9 enzymes with 2 volumes of cold acetonitrile containing internal standard (150 nM diphenhydramine). Samples were stored on ice until the end of the incubation and the precipitated protein was removed by centrifugation (15 min, 4 °C, 4000g). Concentration of the remaining test compound at the different time points was analyzed by HPLC–MS/MS (TSQ Quantum Access Max, Thermo Fisher, Dreieich, Germany) and used to determine half-life (t1/2).

Data set [3] can be described thus: plasma protein binding, human. The format is in vitro ADME. As for the experimental part: as §1
The nature of data set [4]: log D7.4, HPLC-based method. The format is physicochemical. The conditions noted are these: pH 7.4, HPLC-based; read-out: logD7.4. As for the experimental part:
Log D7.4 was analyzed using an HPLC-based method. The UV retention time of reference compounds with known log D7.4 was determined and plotted toward their log D7.4. Linear regression was used to determine the log D7.4 of unknown compounds. Analysis was performed using a Vanquish Flex HPLC system with a variable wavelength detector (Thermo Fisher, Dreieich, Germany) with the following conditions: EC150/2 NUCLEODUR C18 Pyramid column, […] (Macherey Nagel, Düren, Germany); eluent A: 50 mM NH4OAc pH 7.4, eluent B: acetonitrile, and flow: 0.6 mL/min; gradient elution: (B %): 0–2.5 min: gradient from 0 to 100%, 2.5–3.0 min: 100%, 3.0–3.2 min: gradient from 100 to 0%, 3.2–5.0 min: 0%.

Another data set addresses T1, MMP1 (Homo sapiens, UniProt P03956).
T1 construct: purchased AnaSpec (Fremont, CA, USA)
T1 sequence (P03956 100-469): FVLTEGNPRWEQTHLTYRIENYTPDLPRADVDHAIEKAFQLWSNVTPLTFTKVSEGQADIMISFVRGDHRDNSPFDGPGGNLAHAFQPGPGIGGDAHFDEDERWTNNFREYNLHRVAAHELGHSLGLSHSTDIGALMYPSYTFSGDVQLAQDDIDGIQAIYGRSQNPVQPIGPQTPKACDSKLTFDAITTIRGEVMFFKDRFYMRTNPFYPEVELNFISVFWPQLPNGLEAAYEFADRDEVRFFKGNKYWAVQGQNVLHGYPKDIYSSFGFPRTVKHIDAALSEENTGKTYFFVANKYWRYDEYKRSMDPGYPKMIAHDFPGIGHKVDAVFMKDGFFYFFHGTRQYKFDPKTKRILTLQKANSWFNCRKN
Kind of data set: MMP1 inhibition (SensoLyte 520 Generic MMP Activity Kit). The format is biochemical. The settings on record: read-out: MMP1 (% inhibition at 100 μM). The method, then: (§2) Since LpxC and LasB are zinc-dependent enzymes, we investigated potential off-target activity of the three frontrunners on mammalian zinc-dependent enzymes. Our panel comprised three representative matrix-metalloproteases (MMP1–3) and tumor necrosis factor-α converting enzyme (TACE, also known as ADAM17) (Table 6).
(§3) Purification of LasB from P. aeruginosa PA14 supernatant and the subsequent performance of the FRET-based in vitro inhibition assay was performed as described previously.[66] The TACE (ADAM-17) inhibitor screening kit was purchased from Sigma-Aldrich (Saint Louis, MO). MMPs 1–3 along with the SensoLyte 520 Generic MMP Activity Kit Fluorimetric were purchased from AnaSpec (Fremont, CA, USA). The assays were performed according to the guidelines of the respective manufacturer. Fluorescence signals were measured using a CLARIOstar plate reader (BMG Labtech, Ortenberg, Germany).

Another data set concerns the target T2, MMP2 (Homo sapiens, UniProt P08253).
T2 construct: purchased AnaSpec (Fremont, CA, USA)
T2 sequence (P08253 110-660): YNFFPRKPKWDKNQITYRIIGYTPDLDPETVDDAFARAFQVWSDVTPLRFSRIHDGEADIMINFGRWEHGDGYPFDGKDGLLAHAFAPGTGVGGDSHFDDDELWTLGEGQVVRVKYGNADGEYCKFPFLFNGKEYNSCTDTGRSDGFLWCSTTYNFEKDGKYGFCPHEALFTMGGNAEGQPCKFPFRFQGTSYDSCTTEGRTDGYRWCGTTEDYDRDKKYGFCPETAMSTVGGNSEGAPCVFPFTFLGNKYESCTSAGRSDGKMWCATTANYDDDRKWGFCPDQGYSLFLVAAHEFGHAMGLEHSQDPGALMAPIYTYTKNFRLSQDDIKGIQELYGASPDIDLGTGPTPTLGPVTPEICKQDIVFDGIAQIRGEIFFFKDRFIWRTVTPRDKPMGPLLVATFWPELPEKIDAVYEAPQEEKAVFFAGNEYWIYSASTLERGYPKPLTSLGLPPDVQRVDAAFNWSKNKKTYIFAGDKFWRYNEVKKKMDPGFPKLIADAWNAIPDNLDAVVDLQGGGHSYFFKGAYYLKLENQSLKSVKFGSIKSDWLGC
The data set is described as follows: MMP2 inhibition (SensoLyte 520 Generic MMP Activity Kit). The format is biochemical. The conditions noted are these: for inhibition at 100 µM: read-out: MMP2 (% inhibition at 100 μM), 100 μM. The method, then: as §2, §3

In the next data set the target is T3, MMP3 (Homo sapiens, UniProt P08254).
T3 construct: purchased AnaSpec (Fremont, CA, USA)
T3 sequence (P08254 100-477, species assumed): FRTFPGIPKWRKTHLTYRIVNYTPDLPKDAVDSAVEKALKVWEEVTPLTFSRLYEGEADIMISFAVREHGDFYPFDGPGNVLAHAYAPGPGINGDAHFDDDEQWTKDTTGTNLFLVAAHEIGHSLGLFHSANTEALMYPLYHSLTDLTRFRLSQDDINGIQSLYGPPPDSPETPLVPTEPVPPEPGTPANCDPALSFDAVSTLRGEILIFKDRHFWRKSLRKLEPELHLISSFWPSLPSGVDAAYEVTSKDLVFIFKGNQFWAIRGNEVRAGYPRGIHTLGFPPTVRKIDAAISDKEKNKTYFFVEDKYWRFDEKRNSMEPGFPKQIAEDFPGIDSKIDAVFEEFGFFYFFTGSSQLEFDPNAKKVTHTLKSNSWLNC
Kind of data set: MMP3 inhibition (SensoLyte 520 Generic MMP Activity Kit). The format is biochemical. The conditions noted are these: read-out: MMP3 (% inhibition at 100 μM). As for the experimental part:
as §2, §3

In the next data set the target is T4, TACE (ADAM-17) (Homo sapiens, UniProt P78536).
T4 construct: purchased Sigma-Aldrich (Saint Louis, MO)
T4 sequence (P78536 215-824, species assumed): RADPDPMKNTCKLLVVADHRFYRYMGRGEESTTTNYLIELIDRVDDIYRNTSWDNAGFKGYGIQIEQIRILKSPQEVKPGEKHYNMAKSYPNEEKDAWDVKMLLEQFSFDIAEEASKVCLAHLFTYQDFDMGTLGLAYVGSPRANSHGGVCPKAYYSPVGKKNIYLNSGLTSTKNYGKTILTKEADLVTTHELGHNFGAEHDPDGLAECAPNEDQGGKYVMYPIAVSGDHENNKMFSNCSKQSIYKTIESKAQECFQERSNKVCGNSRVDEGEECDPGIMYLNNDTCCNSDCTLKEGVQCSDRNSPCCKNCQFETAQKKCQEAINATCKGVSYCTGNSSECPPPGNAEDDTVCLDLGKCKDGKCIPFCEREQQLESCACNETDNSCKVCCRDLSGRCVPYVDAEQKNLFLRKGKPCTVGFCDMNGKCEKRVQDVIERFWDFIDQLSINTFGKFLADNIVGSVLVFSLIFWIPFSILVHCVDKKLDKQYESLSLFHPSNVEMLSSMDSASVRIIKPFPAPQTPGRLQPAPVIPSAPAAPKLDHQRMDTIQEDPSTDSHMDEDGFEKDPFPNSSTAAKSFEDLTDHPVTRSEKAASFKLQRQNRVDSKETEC
The data set is described as follows: TACE (ADAM-17) inhibitor screening kit. It counts as biochemical. The conditions noted are these: for inhibition at 20 µM: read-out: TACE (% inhibition at 20 μM). As for the experimental part: as §2, §3

For the molecule `O=C(NC[C@H](OCc1ccc(C#Cc2ccc(CN3CCOCC3)cc2)cc1)C(=O)NO)c1c[nH]c2ccccc12` [(S)-13h], in data set [1], the microsomal CLint was less than 23 µL/min/mg and the half-life was greater than 60 min. In addition, in data set [2], the microsomal CLint at 1 μM is roughly 45 µL/min/mg and the half-life at 1 μM came out at 15.5 ± 1 min. In data set [3], this molecule showed a fraction unbound of 0.0175. Further, the chromatographic logD in data set [4] was 3.63. The inhibition at 100 µM at MMP1 came to 15 ± 7%. The inhibition at 100 µM at MMP2 is 15 ± 3%. The inhibition at 100 µM at MMP3 is less than 10%. Moreover, at TACE (ADAM-17), the inhibition at 20 µM is less than 10%.
With `O=C(NC[C@H](OCc1ccc(C#Cc2ccc(CN3CCOCC3)cc2)cc1)C(=O)NO)c1ccc2[nH]ccc2c1` [(S)-13j], the microsomal CLint in data set [1] is less than 23 µL/min/mg. Also, the half-life in data set [1] is greater than 60 min. The same molecule displayed a microsomal CLint at 1 μM in data set [2] of 27.6 ± 2.7 µL/min/mg. Further, the half-life at 1 μM in data set [2] worked out at 25.5 ± 2.7 min. Further, in data set [3], the fraction unbound was 0.0205. Further, in data set [4], the chromatographic logD was 3.33. Besides, the inhibition at 100 µM on MMP1 was less than 10%; on MMP2, roughly 50%; on MMP3, 16 ± 1%; at TACE (ADAM-17) (100 μM (as printed in text)), 38%. Moreover, the “MMP2 (% inhibition at 100 μM)” value at MMP2 (100 μM) came to 47 ± 3%. Moreover, the inhibition at 20 µM on TACE (ADAM-17) turned out to be 38 ± 5%.
With `O=C(NC[C@H](OCc1ccc(C#Cc2ccc(CN3CCOCC3)cc2)cc1)C(=O)NO)c1cc[nH]n1` [(S)-13l], in data set [1], the microsomal CLint worked out at 26 µL/min/mg and the half-life is roughly 53 min. Besides, in data set [2], the microsomal CLint at 1 μM came out at 10.9 ± 0.9 µL/min/mg and the half-life at 1 μM is greater than 60 min. In data set [3], this molecule showed a fraction unbound of 0.0224. Moreover, the chromatographic logD in data set [4] amounted to 2.43. At MMP1, the inhibition at 100 µM stood at 11 ± 6%. On MMP2, the IC50 was 67 µM and the inhibition at 100 µM came to 65 ± 4%. On MMP2 (MMP2 versus LpxC), the “selectivity factor for MMP2” value came out at 105. Also, the inhibition at 100 µM at MMP3 amounted to 19 ± 2%. In addition, on TACE (ADAM-17), the IC50 is 5.4 µM and the inhibition at 20 µM was found to be 81 ± 2%. In addition, on TACE (ADAM-17) (TACE versus LpxC), the “selectivity factor for TACE” value was 8.4.
